Results as given in BindingDB's records for patent US12208088 (Genentech, 2025).

target: Mitogen-activated protein kinase kinase kinase kinase 1 (Homo sapiens, UniProt Q92918); assay: HPK1 Lantha Binding Assay
Protocol: For the binding assay, 4 ul 2×HPK1 and Eu-anti-GST antibody were added to each well of the assay plate using a Multidrop reagent dispenser. The solutions were incubated in a 23 C incubator for 1 h. To each well of the assay plate was added 4 ul 2× Tracer-222 using a Multidrop reagent dispenser. The solutions were again incubated in a 23 C incubator for 1 h. The results of the assay were read using an Envision plate reader with the following parameters: TR_FRET, 340 ex/615 and 665em; 100 usec Delay; and 200 usec integration.

Mitogen-activated protein kinase kinase kinase kinase 1, sequence (Q92918 whole entry): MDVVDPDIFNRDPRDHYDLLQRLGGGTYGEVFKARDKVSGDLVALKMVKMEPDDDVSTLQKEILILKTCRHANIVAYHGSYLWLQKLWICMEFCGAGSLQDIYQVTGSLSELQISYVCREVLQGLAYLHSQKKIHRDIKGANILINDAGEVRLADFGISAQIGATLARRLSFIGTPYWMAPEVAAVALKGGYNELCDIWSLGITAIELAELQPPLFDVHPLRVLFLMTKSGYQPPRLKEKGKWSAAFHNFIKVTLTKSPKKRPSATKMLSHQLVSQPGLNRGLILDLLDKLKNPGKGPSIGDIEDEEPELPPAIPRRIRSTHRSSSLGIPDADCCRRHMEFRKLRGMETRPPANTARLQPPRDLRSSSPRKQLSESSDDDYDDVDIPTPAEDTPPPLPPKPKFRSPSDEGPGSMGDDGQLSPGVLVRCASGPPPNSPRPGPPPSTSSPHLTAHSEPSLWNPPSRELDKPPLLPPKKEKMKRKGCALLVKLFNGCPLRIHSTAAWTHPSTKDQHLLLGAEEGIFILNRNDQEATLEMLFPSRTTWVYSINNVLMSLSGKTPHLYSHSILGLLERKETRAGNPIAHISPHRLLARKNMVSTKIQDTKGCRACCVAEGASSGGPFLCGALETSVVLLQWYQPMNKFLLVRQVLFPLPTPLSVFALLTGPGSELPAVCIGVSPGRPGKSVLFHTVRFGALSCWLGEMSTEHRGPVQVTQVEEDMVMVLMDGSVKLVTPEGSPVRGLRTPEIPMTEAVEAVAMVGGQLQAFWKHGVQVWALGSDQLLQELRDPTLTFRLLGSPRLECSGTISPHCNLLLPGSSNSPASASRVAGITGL

SMILES | Ki
CN(CC(C)(C)O)C(=O)c1c(N)ccc(-c2cnc3c(c2Cl)C2(CC2)CN3)c1F [US12208088, Compound 35] | 22.8 nM
CC1CNC(=O)N1c1c(N)ccc(-c2cnc3c(c2Cl)C2(CC2)CN3)c1F (configuration not stated) [US12208088, Compound 25] | 43.9 nM
CN(C)C(=O)c1c(N)ccc(-c2cnc3c(c2Cl)C2(CCC(Cn4cncn4)C2)CN3)c1F (configuration not stated) [US12208088, Compound 129] | 23.4 nM
CC(=O)Nc1cc(C(=O)N(C)C)cc(-c2cnc3c(c2Cl)C2(CC2)CN3)c1 [US12208088, Compound 33] | 771 nM
O=C1NCCC1c1cccc(-c2cnc3c(c2)C2(CC2)CN3)c1F (configuration not stated) [US12208088, Compound 92] | 28.4 nM

Continued, values first:

Ki | SMILES
163 nM | CN(C)C(=O)c1ccc(-c2cnc3c(c2Cl)C2(CC=CC2)CN3)cc1Cl [US12208088, Compound 192]
11.5 nM | N#CC1CCCCN1C(=O)c1cccc(-c2cnc3c(c2Cl)C2(CC=CC2)CN3)c1F (configuration not stated) [US12208088, Compound 264]
